Reference: the NIST ThermoML archive (doi:10.1021/acs.jced.8b00008)

Assay: xn = mol fraction of the nth substance listed
Details: for surface tension liquid-gas: 293 K, Pendant drop shape; for viscosity / speed of sound / mass density: 102 kPa, Liquid; for viscosity: Concentric cylinders viscometry; for speed of sound: Single path-length method; for mass density: Vibrating tube method

CC1CCCCC1 [methylcyclohexane] + CCCCCCCCCCCC
Details	surface tension liquid-gas [mN/m]
x1 = 0.1	24.86
x1 = 0.2001	24.84
x1 = 0.3	24.76
x1 = 0.4001	24.73
x1 = 0.5	24.5
x1 = 0.5999	24.34
x1 = 0.7	24.25
x1 = 0.7999	24.11
x1 = 0.9	23.95

Details	mass density [kg/m3]	speed of sound [m/s]	viscosity [mPa·s]
293.15 K, x1 = 0.1	749.76	1293.1	1.41
293.15 K, x1 = 0.2001	750.92	1288.3	1.34
293.15 K, x1 = 0.3	752.24	1283.1	1.26
293.15 K, x1 = 0.4001	753.73	1277.5	1.18
293.15 K, x1 = 0.5	755.42	1271.7	1.11
293.15 K, x1 = 0.5999	757.37	1265.3	1.03
293.15 K, x1 = 0.7	759.54	1258.9	0.95
293.15 K, x1 = 0.7999	762.21	1251.8	0.875
293.15 K, x1 = 0.9	765.42	1244.3	0.798
298.15 K, x1 = 0.1	746.11	1273.6	1.29
298.15 K, x1 = 0.2001	747.24	1268.7	1.23
298.15 K, x1 = 0.3	748.53	1263.4	1.16
298.15 K, x1 = 0.4001	749.97	1257.7	1.09
298.15 K, x1 = 0.5	751.63	1251.7	1.04
298.15 K, x1 = 0.5999	753.5	1245	0.968
298.15 K, x1 = 0.7	755.59	1238.2	0.898
298.15 K, x1 = 0.7999	758.17	1230.8	0.828
298.15 K, x1 = 0.9	761.26	1222.7	0.755
303.15 K, x1 = 0.1	742.46	1254.3	1.2
303.15 K, x1 = 0.2001	743.56	1249.3	1.14
303.15 K, x1 = 0.3	744.81	1243.9	1.08
303.15 K, x1 = 0.4001	746.21	1238	1.02
303.15 K, x1 = 0.5	747.8	1231.9	0.959
303.15 K, x1 = 0.5999	749.62	1224.8	0.889
303.15 K, x1 = 0.7	751.64	1217.8	0.826
303.15 K, x1 = 0.7999	754.12	1209.9	0.762
303.15 K, x1 = 0.9	757.08	1201.4	0.696
313.15 K, x1 = 0.1	735.13	1216.3	1.01
313.15 K, x1 = 0.2001	736.17	1211.1	0.965
313.15 K, x1 = 0.3	737.34	1205.4	0.916
313.15 K, x1 = 0.4001	738.65	1199.2	0.871
313.15 K, x1 = 0.5	740.13	1192.9	0.858
313.15 K, x1 = 0.5999	741.83	1185.2	0.8
313.15 K, x1 = 0.7	743.69	1177.6	0.744
313.15 K, x1 = 0.7999	745.98	1169	0.689
313.15 K, x1 = 0.9	748.69	1159.5	0.63
323.15 K, x1 = 0.1	727.76	1178.9	0.892
323.15 K, x1 = 0.2001	728.74	1173.5	0.852
323.15 K, x1 = 0.3	729.83	1167.6	0.813
323.15 K, x1 = 0.4001	731.05	1161.1	0.774
323.15 K, x1 = 0.5	732.41	1154.4	0.732
323.15 K, x1 = 0.5999	733.97	1146.3	0.681
323.15 K, x1 = 0.7	735.69	1138.2	0.634
323.15 K, x1 = 0.7999	737.77	1128.8	0.589
323.15 K, x1 = 0.9	740.22	1118.3	0.538
333.15 K, x1 = 0.1	720.35	1142.5	0.783
333.15 K, x1 = 0.2001	721.26	1137	0.752
333.15 K, x1 = 0.3	722.26	1130.7	0.716
333.15 K, x1 = 0.4001	723.38	1124	0.692
333.15 K, x1 = 0.5	724.63	1116.6	0.641
333.15 K, x1 = 0.5999	726.06	1108.3	0.606
333.15 K, x1 = 0.7	727.61	1099.9	0.564
333.15 K, x1 = 0.7999	729.48	1089.6	0.527
333.15 K, x1 = 0.9	731.68	1078.2	0.48
